{"source": "paper PMC9332833", "about": "(Cancers, 2022)", "key": {"[1]": {"experiment": "Solubility in selected solvents", "type": "physicochemical", "description": "Supplementary Information\nTable S1. Solubility of BK124.1 in selected solvents. In bold are marked solvents in which BK124.1 is soluble and stable, adequate for the administration in vivo.\nSolvent Formulation Comments\nWater 0.9% NaCl insoluble\n10% ethanol in 0.9% NaCl insoluble\nCyclodextrin ɑ-cyclodextrin in water insoluble\nβ-cyclodextrin in water insoluble\nγ-cyclodextrin in water insoluble […]\nDMSO < 100% in water insoluble\nSurfactant 20% Solutol HS 15 in 0.9% NaCl insoluble\n20% Solutol HS 15 in PBS insoluble\n20% Solutol HS 15, 10% ethanol in water 0.9% NaCl soluble/stable\n10% Solutol HS 15, 10% ethanol in water 0.9% NaCl soluble/stable"}, "[2]": {"tested_on": "K562 cells", "experiment": "Annexin V-FITC/PI apoptosis measurement, K562", "type": "cell-based, human", "details": "5 µM, 24 h", "protocol": "Cells were seeded in 6-well plates (K562 or K562-MDR1) or in 24-well plates (CD34^+ cells). After 24 h, BK124.1 or DMSO was added. After a further 24 h, cells were stained using the Annexin V-FITC kit for the detection of apoptosis (BD, Franklin Lakes, NJ, USA) and immediately analyzed on a BD FACSCalibur using CellQuest software (BD, Franklin Lakes, NJ, USA). […]\nincubated overnight at 37 °C and analyzed using an iMark Microp late absorbance reader (Bio-Rad, Hercules, CA, USA). Results were calculated relative to control cells treated with DMSO only.\n[…] CD34+ cells were plated at a concentration of 2.5 × 10^5 cells/mL in a 24-well plate. […] A f t e r a further 24 hours, cells were harvested and stained according to the manufacturer's protocol using the Annexin V-FITC kit for the detection of apoptosis (BD, Franklin Lakes, NJ, USA). Stained cells were immediately analyzed on a BD FACSCalibur using CellQuest softwa re (BD, Franklin Lakes, NJ, USA).\nCells were seeded at a concentration of 1-2 × 10^5 cells/mL in a 6-well plate. After 24 hours of pre-incubation, BK124.1 in DMSO was added to the cells (vDMSO/vmedium), and incubated for 24 or 48 hours.\nAfter incubation, cells were washed twice with ice-cold PBS (Mg2+ and Ca2+-free), resuspended in ice-cold 70% ethanol, and placed at -20 °C for 24 hours. […]\nFlow cytometry analysis of CD243 (P-glycoprotein) […]"}, "[3]": {"tested_on": "K562 cells", "experiment": "K562 xenogeneic mouse model, tumor growth", "type": "in vivo, NSG mice", "details": "for Tumor weights: mean ± SD, N=4, tumor growth control 9.2±2.1", "protocol": "Statistical analysis was performed using GraphPad Prism version 9.1.0. All in vitro experiments were performed in at least triplicate biological replicates and statistical results are expressed as mean ± standard deviation (SD). Statistical data of animal experiments are expressed as mean ± standard error of the mean (SEM). For experiments involving patients, the normality of the distribution was checked using the Shapiro–Wilk test and the statistical analysis was performed using one-way ANOVA with Dunnett’s post-test * p < 0.05, ** […], *** 0.001 > p > 0.0001, **** p < 0.0001.\nTable S3. […] Control and\nIP, intraperitoneal administration; O, orally"}, "[4]": {"tested_on": "K562-MDR1 cells", "experiment": "P-glycoprotein (CD243)/propidium iodide flow cytometry", "type": "cell-based, human", "protocol": "BK124.1 or DMSO were added to cells and after 24 h incubation cells were harvested and stained with FITC Mouse Anti-Human P-glycoprotein (CD243) clone 17F9 (BD, Franklin Lakes, NJ, USA) or an appropriate isotype control. Propidium iodide was added to […]. Cells were analyzed on a BD FACSCalibur flow cytometer using CellQuest software (BD, Franklin Lakes, NJ, USA). […]\nFlow cytometry analysis of CD243 (P-glycoprotein)\nCells were seeded at a concentration of 1-2 × 10^5 cells/mL in a 6- or 24-well plate. After 24 hours of pre-incubation, DMSO or test compounds in DMSO were added. The cells were then incubated for 24 hours. After this time, cells were harvested, washed with 0.5% BSA in PBS (Mg2+ and Ca2+ free), and labeled for 30 minutes on ice with FITC Mouse Anti-Human P-glycoprotein (CD243) clone 17F9 (BD, Franklin Lakes, NJ, USA) or an appropriate isotype control. Following incubation with the antibody, cells were stained with propidium iodide, washed with PBS and a nalyzed on a BD FACSCalibur flow cytometer using CellQuest software (BD, Franklin Lakes, NJ, USA). […]"}}}
{"smiles": "CCC12C(=O)C(CC)(C(c3ccccc3)=C1c1ccccc1)C1C(=O)N(CC(O)CNC(C)C)C(=O)C12", "note": "(stereo not shown) [BK124.1, 4-[2-hydroxy-3-(propan-2-ylamino)propyl]-1,7-diethyl-8,9-diphenyl-4-azatricyclo [5.2.1.02,6]dec-8-ene-3,5,10-trione]", "values": [{"measurement": "Solubility", "setting": "[1]; 0.9% NaCl", "result": "insoluble"}, {"measurement": "Solubility", "setting": "[1]; 10% Solutol HS 15, 10% ethanol in water 0.9% NaCl", "result": "soluble/stable"}, {"measurement": "Solubility", "setting": "[1]; 10% ethanol in 0.9% NaCl", "result": "insoluble"}, {"measurement": "Solubility", "setting": "[1]; 20% Solutol HS 15, 10% ethanol in water 0.9% NaCl", "result": "soluble/stable"}, {"measurement": "Solubility", "setting": "[1]; 20% Solutol HS 15 in 0.9% NaCl", "result": "insoluble"}, {"measurement": "Solubility", "setting": "[1]; 20% Solutol HS 15 in PBS", "result": "insoluble"}, {"measurement": "Solubility", "setting": "[1]; DMSO 100%", "result": "soluble/stable"}, {"measurement": "Solubility", "setting": "[1]; DMSO < 100% in water", "result": "insoluble"}, {"measurement": "Solubility", "setting": "[1]; ɑ-cyclodextrin in water", "result": "insoluble"}, {"measurement": "Solubility", "setting": "[1]; β-cyclodextrin in water", "result": "insoluble"}, {"measurement": "Solubility", "setting": "[1]; γ-cyclodextrin in water", "result": "insoluble"}, {"measurement": "Apoptosis", "setting": "[2]", "result": 61.2, "unit": "%"}, {"measurement": "Tumor weights", "setting": "[3]; 20 mg/kg IP daily 14 days", "result": "1.6 ± 1.6", "unit": "g"}, {"measurement": "Tumor weights", "setting": "[3]; 30 mg/kg IP daily 14 days", "result": "1.9 ± 1.8", "unit": "g"}, {"measurement": "Tumor growth versus control groups", "setting": "[3]; BK124.1 20 or 30 mg/kg IP, imatinib 100 mg/kg orally, hydroxyurea 500 mg/kg IP, 1 x daily", "result": "effectively inhibited"}, {"measurement": "Tumor volume", "setting": "[3]; prolonged treatment (days 4-17), IP 20 or 30 mg/kg, comparable with hydroxyurea or imatinib", "result": "significant reduction in tumor volume"}, {"measurement": "Proportion of K562-MDR1 cells, mean value", "setting": "[4]; 5 µM, 24 h, DMSO control 33.6%", "result": 68.3, "unit": "%"}, {"measurement": "viability at 5 µM", "setting": "[4]; Homo sapiens, 5 µM, 24 h, DMSO control 89.2%, read-out: Living cells (viability), mean value", "result": 53.8, "unit": "%"}, {"measurement": "MDR1 substrate", "setting": "[4]; conclusion from K562-MDR1 data", "result": "not a MDR1 substrate"}]}
